ChEMBL document CHEMBL3734721 (J Med Chem, 2015)

How the values were obtained:
[1] = Fraction unbound in rat brain at 5 uM after 5 hrs by LC-MS/MS analysis; type: ADME, tissue-based
[2] = target: 5-hydroxytryptamine receptor 2A (Homo sapiens, UniProt P28223); test: Antagonist activity at human 5-HT2A receptor expressed in CHO-K1 cells assessed as seretonin-induced calcium level by FDSS assay; type: functional, cell-based
[3] = target: T1, Alpha-2A adrenergic receptor (Homo sapiens, UniProt P08913); test: Antagonist activity at human wild-type alpha 2A receptor expressed in CHO-K1 cells assessed as epinephrine-induced cAMP by HTRF assay; type: functional, cell-based
T1 sequence (P08913 whole entry): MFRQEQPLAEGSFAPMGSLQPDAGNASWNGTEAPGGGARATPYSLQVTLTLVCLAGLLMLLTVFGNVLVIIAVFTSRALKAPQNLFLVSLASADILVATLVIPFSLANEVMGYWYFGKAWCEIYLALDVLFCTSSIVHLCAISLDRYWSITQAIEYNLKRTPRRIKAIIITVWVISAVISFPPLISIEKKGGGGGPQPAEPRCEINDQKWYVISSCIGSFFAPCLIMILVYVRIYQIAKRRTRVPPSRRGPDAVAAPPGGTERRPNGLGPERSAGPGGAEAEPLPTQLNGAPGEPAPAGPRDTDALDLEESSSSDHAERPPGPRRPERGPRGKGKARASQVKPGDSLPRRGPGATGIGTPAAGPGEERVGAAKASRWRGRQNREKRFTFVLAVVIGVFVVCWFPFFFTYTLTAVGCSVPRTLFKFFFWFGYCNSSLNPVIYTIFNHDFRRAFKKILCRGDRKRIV

Liver microsome [4] = test: Metabolic stability in human liver microsomes assessed as CN adduct formation at 40 uM for 1 hr by LC/MS analysis; type: ADME
[5] = target: T2, Muscarinic acetylcholine receptor M1 (Homo sapiens, UniProt P11229); test: Agonist activity at human wild-type M1 receptor expressed in CHO-K1 cells assessed as calcium level by FDSS assay; type: functional, cell-based
T2 sequence (P11229 whole entry): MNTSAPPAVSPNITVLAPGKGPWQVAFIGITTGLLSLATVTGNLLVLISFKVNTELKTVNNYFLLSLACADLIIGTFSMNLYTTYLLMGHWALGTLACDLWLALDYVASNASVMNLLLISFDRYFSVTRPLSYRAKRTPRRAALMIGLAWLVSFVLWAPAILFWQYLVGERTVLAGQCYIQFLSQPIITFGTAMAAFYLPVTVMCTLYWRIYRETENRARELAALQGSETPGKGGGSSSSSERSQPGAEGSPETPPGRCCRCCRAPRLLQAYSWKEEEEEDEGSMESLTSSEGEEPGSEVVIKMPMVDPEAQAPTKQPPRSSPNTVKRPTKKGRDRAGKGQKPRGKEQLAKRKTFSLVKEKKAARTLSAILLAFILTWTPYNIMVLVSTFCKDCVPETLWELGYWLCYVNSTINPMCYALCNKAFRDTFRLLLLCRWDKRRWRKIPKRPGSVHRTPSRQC

[6] = target: T3, Type-1 angiotensin II receptor (Homo sapiens, UniProt P30556); test: Antagonist activity at human wild-type AGTR1 receptor expressed in CHO-K1 cells assessed as angiotensin-2-induced calcium by FDSS assay; type: functional, cell-based
T3 sequence (P30556 whole entry): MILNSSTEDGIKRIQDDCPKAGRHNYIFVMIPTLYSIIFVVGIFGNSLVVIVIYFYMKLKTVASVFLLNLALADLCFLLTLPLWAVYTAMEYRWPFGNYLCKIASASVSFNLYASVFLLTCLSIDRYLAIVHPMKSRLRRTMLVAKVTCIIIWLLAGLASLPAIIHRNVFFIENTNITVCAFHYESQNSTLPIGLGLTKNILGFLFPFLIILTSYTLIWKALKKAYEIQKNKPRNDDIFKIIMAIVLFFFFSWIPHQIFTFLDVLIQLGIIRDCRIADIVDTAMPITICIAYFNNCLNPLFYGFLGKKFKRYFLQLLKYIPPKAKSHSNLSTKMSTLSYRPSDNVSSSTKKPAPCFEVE

Cytochrome P450 2C9 = Cytochrome P450 2C9 (Homo sapiens, UniProt P11712); test: Inhibition of human CYP2C9 by LC-MS analysis; type: ADME
Chain of Cytochrome P450 2C9 (P11712 whole entry): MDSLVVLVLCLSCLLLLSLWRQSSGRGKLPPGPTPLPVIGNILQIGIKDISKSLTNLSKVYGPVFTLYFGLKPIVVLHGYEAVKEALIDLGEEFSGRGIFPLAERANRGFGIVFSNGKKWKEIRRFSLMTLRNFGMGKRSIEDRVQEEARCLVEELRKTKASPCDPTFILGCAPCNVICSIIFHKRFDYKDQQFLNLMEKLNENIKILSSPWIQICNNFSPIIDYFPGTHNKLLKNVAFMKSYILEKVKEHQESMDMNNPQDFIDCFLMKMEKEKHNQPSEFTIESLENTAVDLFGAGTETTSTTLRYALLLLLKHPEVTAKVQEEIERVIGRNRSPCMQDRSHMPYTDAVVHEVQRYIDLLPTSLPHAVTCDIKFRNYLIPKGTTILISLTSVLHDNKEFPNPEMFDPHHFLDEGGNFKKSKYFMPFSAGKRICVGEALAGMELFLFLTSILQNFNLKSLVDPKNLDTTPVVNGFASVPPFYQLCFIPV

HepG2 = test: Cytotoxicity against human HepG2 cells; type: cell-based
[7] = Intrinsic clearance in rat liver microsomes at 1 uM by HPLC/MS/MS analysis; type: ADME; details: read-out: CLH
[8] = Chemical stability of compound in DMSO assessed as compound remaining at 10 mg/ml after 24 days at room temperature under air; type: physicochemical; details: read-out: Stability
Liver microsome [9] = test: Metabolic stability in human liver microsomes assessed as GSH adduct formation at 40 uM for 1 hr by LC/MS analysis; type: ADME
[10] = Cmax in Swiss mouse brain at 5 mg/kg, sc; type: ADME, organism-based; parameters: dose 5 mg/kg, route subcutaneous
D(1A) dopamine receptor = D(1A) dopamine receptor (Homo sapiens, UniProt P21728); test: Antagonist activity at human wild-type D1 receptor expressed in CHO cells assessed as dopamine-induced cAMP by HTRF assay; type: functional, cell-based
Chain of D(1A) dopamine receptor (P21728 whole entry): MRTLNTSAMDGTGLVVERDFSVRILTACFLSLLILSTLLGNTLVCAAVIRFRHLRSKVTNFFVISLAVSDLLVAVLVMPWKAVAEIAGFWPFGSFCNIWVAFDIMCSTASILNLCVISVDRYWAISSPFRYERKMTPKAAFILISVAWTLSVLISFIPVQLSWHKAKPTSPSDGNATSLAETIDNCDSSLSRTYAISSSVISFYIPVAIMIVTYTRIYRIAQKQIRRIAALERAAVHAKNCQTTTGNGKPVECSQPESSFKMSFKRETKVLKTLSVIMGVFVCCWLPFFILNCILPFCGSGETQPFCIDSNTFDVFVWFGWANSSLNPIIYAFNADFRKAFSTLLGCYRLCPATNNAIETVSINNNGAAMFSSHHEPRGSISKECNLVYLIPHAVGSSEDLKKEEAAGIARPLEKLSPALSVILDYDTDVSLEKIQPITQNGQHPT

Vasopressin V1a receptor = Vasopressin V1a receptor (Homo sapiens, UniProt P37288); test: Antagonist activity at human wild-type AVPR1A receptor expressed in CHO-K1 cells assessed as vassopressin-induced calcium by FDSS assay; type: functional, cell-based
Chain of Vasopressin V1a receptor (P37288 whole entry): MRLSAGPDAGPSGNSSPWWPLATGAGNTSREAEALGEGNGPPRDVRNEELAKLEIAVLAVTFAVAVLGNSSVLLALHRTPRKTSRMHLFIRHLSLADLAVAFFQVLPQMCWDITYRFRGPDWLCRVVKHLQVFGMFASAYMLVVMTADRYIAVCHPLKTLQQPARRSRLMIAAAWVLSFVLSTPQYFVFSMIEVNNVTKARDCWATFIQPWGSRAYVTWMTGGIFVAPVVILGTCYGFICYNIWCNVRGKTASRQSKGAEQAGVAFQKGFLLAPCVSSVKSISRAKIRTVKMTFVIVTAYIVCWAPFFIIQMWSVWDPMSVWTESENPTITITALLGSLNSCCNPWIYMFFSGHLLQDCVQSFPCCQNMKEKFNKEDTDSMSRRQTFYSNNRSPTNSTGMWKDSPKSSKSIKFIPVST

[11] = target: T4, Cholecystokinin receptor type A (Homo sapiens, UniProt P32238); test: Antagonist activity at human wild-type CCKA receptor expressed in CHO-K1 cells assessed as CCK8-induced calcium by FDSS assay; type: functional, cell-based
T4 sequence (P32238 whole entry): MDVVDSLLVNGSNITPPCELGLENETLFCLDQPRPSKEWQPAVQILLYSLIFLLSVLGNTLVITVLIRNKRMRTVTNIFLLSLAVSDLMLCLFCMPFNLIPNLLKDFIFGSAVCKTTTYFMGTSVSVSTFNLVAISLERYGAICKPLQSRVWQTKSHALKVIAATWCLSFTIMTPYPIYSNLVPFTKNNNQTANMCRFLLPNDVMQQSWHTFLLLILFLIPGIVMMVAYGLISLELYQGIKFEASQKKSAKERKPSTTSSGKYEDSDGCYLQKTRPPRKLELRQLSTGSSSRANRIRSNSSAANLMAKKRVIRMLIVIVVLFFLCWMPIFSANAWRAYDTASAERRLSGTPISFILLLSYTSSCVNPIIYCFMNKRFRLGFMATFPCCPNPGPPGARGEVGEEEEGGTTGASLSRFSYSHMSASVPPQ

D(2) dopamine receptor = D(2) dopamine receptor (Homo sapiens, UniProt P14416); test: Agonist activity at human wild-type D2 receptor expressed in CHO-K1 cells assessed as cAMP level by HTRF assay; type: functional, cell-based
Chain of D(2) dopamine receptor (P14416 whole entry): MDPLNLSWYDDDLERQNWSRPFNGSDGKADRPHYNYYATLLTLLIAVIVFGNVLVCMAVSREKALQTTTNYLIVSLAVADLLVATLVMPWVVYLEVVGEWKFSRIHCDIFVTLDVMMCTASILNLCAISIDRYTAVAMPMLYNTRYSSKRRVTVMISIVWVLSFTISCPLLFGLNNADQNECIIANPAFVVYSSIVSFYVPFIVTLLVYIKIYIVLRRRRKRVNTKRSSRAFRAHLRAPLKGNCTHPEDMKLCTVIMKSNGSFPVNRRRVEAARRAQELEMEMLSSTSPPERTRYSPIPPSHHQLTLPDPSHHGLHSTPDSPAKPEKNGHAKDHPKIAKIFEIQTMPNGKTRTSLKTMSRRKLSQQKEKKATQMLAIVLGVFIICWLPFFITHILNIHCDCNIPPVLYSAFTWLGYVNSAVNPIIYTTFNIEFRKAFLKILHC

[12] = target: 5-hydroxytryptamine receptor 1A (Homo sapiens, UniProt P08908); test: Antagonist activity at human 5-HT1A receptor expressed in CHO-K1 cells assessed as seretonin-induced cAMP level by HTRF assay; type: functional, cell-based
Chain of 5-hydroxytryptamine receptor 1A (P08908 whole entry): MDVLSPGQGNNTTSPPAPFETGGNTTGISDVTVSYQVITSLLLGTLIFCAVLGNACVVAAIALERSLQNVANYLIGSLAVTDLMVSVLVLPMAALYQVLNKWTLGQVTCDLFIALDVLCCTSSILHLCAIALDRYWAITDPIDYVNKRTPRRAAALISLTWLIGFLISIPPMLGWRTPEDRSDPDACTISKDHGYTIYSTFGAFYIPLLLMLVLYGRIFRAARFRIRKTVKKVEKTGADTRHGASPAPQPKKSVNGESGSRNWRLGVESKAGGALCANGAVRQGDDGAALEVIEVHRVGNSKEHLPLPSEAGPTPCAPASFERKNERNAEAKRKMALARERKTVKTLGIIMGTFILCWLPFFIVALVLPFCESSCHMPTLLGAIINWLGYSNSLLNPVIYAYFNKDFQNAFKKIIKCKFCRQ

[13] = Chemical stability of compound in 0.1N HCL assessed as compound remaining at 10 mg/ml after 1 day; type: physicochemical; details: read-out: Stability
[14] = Chemical stability of compound in DMSO assessed as compound remaining at 10 mg/ml after 1 day at room temperature; type: physicochemical; details: read-out: Stability
Mu-type opioid receptor = Mu-type opioid receptor (Homo sapiens, UniProt P35372); test: Antagonist activity at human wild-type opioid-mu receptor expressed in CHO-K1 cells assessed as DAMGO-induced cAMP by HTRF assay; type: functional, cell-based
Chain of Mu-type opioid receptor (P35372 whole entry): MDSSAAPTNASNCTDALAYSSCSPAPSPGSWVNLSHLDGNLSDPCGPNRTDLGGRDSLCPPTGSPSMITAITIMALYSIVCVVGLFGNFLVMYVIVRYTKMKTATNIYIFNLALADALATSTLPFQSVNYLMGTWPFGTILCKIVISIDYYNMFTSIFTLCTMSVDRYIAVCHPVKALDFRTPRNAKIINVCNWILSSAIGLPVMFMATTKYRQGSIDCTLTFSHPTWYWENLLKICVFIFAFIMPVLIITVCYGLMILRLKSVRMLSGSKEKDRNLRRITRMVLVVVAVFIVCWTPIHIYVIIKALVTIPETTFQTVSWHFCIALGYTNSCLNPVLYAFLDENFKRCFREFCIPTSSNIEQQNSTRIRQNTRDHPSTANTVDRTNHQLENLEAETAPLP

Chain of 5-hydroxytryptamine receptor 2A (P28223 whole entry): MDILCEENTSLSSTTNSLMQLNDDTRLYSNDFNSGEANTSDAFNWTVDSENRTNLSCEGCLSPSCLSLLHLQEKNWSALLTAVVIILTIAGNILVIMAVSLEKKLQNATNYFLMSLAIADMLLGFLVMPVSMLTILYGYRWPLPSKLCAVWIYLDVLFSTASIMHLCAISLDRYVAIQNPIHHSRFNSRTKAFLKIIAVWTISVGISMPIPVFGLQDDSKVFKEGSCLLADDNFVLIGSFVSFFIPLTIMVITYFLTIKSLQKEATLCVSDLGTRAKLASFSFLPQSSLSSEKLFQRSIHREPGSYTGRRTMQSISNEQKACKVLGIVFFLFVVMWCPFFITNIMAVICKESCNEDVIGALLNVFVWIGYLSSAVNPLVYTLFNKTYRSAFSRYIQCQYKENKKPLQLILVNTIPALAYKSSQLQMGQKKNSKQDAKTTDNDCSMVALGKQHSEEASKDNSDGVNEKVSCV

fraction unbound at 5 h, 5 µM [1]	IC50 [2]	IC50 [3]	Stability (Liver microsome [4])	EC50 [5]	IC50 [6]	IC50 (Cytochrome P450 2C9)	microsomal CLint at 1 µM [7]	remaining at 576 h, 10 mg/ml [8]	Stability (Liver microsome [9])	Cmax [10]	IC50 (D(1A) dopamine receptor)	IC50 (Vasopressin V1a receptor)	IC50 [11]	EC50 (D(2) dopamine receptor)	IC50 [12]	remaining at 24 h, 10 mg/ml [13]	remaining at 24 h, 10 mg/ml [14]	IC50 (Mu-type opioid receptor)	Structure (SMILES)	EC20 (HepG2)
0.019	> 5.01 µM	> 5.01 µM	Stable	> 5.01 µM	> 5.01 µM	> 10 µM	> 346 µL/min/mg	97%	Stable	62 µM	> 5.01 µM	> 5.01 µM	> 5.01 µM	> 5.01 µM	2 µM	0%	97%	> 5.01 µM	CB1C=Cc2c(cccc2OCC(O)CN(C)C)N1 (stereo not given)	59 µM
0.0055	> 5.01 µM	> 5.01 µM	Stable	> 5.01 µM	> 5.01 µM	> 10 µM	289 µL/min/mg	98%	Stable	7 µM	> 5.01 µM	> 5.01 µM	> 5.01 µM	> 5.01 µM	> 5.01 µM	0%	96%	> 5.01 µM	CB1C=Cc2cccc(OCC(O)CNC(C)C)c2N1 (stereo not given)	18.7 µM
